“Also recorded” adds a separate entry of the source.
B1: M165S3B: his-tag-removed aMTD165-SOCS3-SDB recombinant protein (protein)
chain: ALAVPVALAIVPVTHSKFPAAGMSRPLDTSLRLKTFSSKSEYQLVVNAVRKLQESGFYWSAVTGGEANLLLSAEPAGTFLIRDSSDQRHFFTLSVKTQSGTKNLRIQCEGGSFSLQSDPRSTQPVPRFDCVLKLVHHYMPPPGAPSFPSPPTEPSSEVPEQPSAQPLPGSPPRRAYYIYSGGEKIPLVLSRPLSSNVATLQHLCRKTVNGHLDSYEKVTQLPGPIREFLDQYDAPLMAEQSDKDVKYYTLEEIQKHKDSKSTWLILHHKVYDLTKFLEEHPGGEEVLGEQAGGDATENFEDVGHSTDARELSKTYIIGELHPDDRSKIAKPSETL
modifications: Amino acid sequence of E.coli codon usage optimized M165S3B′
notes: his-tag-removed aMTD165-SOCS3-SDB recombinant protein

What was measured:
RAW 264.7 cells [1] = assay: Quantitative cell-permeability of FITC-labeled aMTD- or rPeptide-fused CRA recombinant proteins (flow cytometry); assay type: cell-based; conditions: for Relative Ratio to aMTD AVE: cell-permeability of rPeptide-fused CRA recombinant protein relative to average of 240 aMTDs
Procedure, shortened: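 Uptake of fluorescently labeled, peptide-fused cargo proteins was quantified by flow cytometry (Guava, Millipore) and analyzed in FlowJo software. RAW 264.7 cells received 10 μM FITC-labeled protein for 1 hour at 37° C., were rinsed three times with cold PBS, and were trypsinized with 0.25% tripsin/EDTA for 20 minutes at 37° C. to remove bound protein before measurement. Permeability was expressed relative to reference proteins.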

[2] = Solubility/yield of SOCS3 recombinant proteins expressed and purified from E. coli; assay type: physicochemical
Experimental: Thereafter, the recombinant protein gene-introduced E. coli was inoculated in 7 ml of LB medium, and then incubated at 37° C. overnight. The E. coli was inoculated in 700 ml of LB medium and incubated at 37° C. until OD600 reached 0.6. To this culture medium, 0.6 mM of isopropyl-β-D-thiogalactoside (IPTG, Gen Depot, USA) was added as a protein expression inducer, followed by further incubation at 37° C. for 3 hours. This culture medium was centrifuged at 4° C. and 8,000 rpm for 10 minutes and a supernatant was discarded to recover a cell pellet. The cell pellet thus recovered was suspended in a lysis buffer (100 mM NaH2PO4, 10 mM Tris-HCl, 8 M Urea, pH 8.0), and cells were disrupted by sonication (on/off time: 30 sec/30 sec, on time 2 hours, amplify 40%), and centrifuged at 15,000 rpm for 30 min to obtain a soluble fraction and an insoluble fraction.
After purification, the proteins were put in a SnakeSkin Dialysis Tubing bag (pore size: 10000 mw, Thermo scientific, USA) and then they were dialyzed by physiological buffer (DMEM). The strain lysate where protein expression was not induced, the strain lysate where protein expression was induced by addition of IPTG, and purified proteins were loaded on SDS-PAGE to analyze protein expression characteristics and expression levels (FIGS. 19 and 20).
Solubility of aMTD/SD-fused SOCS3 proteins was scored on a 5 point scale compared with that of SOCS3 proteins lacking the solubilization domain.

RAW 264.7 cells [3] = assay: Cell-permeability of FITC-labeled SOCS3 recombinant proteins (flow cytometry); assay type: cell-based; conditions: 10 μM FITC-labeled protein, 1 hr, 37° C.
Experimental: To examine cell-permeability of SOCS3 recombinant protein, SOCS3 recombinant proteins were conjugated to 5/6-fluorescein isothiocyanate (FITC). RAW 264.7 (KCLB, Seoul, South Korea) (FIG. 20) or NIH3T3 cells (KCLB, Seoul, South Korea) (FIG. 21) were treated with 10 μM FITC-labeled SOCS3 recombinant proteins and cultivated for 1 hr at 37° C.
In this regard, RAW 264.7 cells were cultured in a DMEM medium containing 10% fetal bovine serum (FBS, Hyclone, USA) and […] of 1% penicillin/streptomycin (Hyclone, USA).
After cultivation, the cells were washed three times with ice-cold PBS (Phosphate-buffered saline, Hyclone, USA) and treated with proteinase K (10 μg/mL, SIGMA, USA) to remove surface-bound proteins, and internalized proteins were measured by flow cytometry (FlowJo cytometric analysis software, Guava, Millipore, Darmstadt, Germany). Untreated cells (gray) and equimolar concentration of unconjugated FITC (FITC only, green)-treated cells were served as control (FIG. 20). Each of NIH3T3 cells was incubated for 1 hour at 37° C. with 10 μM FITC-labeled SOCS3 protein. For nuclear staining, a mixture of […] Mounting Medium (Vector laboratories, Burlingame, Calif.) and DAPI (4′,6-diamidino-2-phenylindole) was added to NIH3T3 cells, and visualized using a confocal laser microscope (LSM700, Zeiss, Germany) (FIG. 21).

AGS cells = assay: Induction of apoptosis by Annexin V/7-AAD staining in gastric carcinoma cells; assay type: cell-based; conditions: 10 uM, 14 hours
Experimental: AGS cells (gastric carcinoma cell line) (American Type Culture Collection; ATCC) were seeded in a 12-well plate at a density of 1×10^5 cells/well, and then treated with 10 uM of aMTD/SD-fused SOCS3 for 14 hours. Cancer cell death was analyzed by Annexin V analysis. Annexin V/7-Aminoactinomycin D (7-AAD) staining was performed using flow cytometry according to the manufacturer's guidelines (BD Pharmingen, San Diego, Calif., USA). Briefly, cells were washed three times with ice-cold PBS. The cells were then resuspended in 100 μl of binding buffer and incubated with 1 μl of 7-AAD and 1 μl of annexin V-PE for 30 min in the dark at 37° C. Flow cytometric analysis was immediately performed using a guava easyCyte™ 8 Instrument (Merck Millipore, Darmstadt, Germany).

[4] = cell-permeability of aMTD-fused CRA recombinant protein relative to negative control (A: rP38)
[5] = cell-permeability of aMTD-fused CRA recombinant protein relative to reference CPP (B: MTM12)
[6] = cell-permeability of aMTD-fused CRA recombinant protein relative to reference CPP (C: MTD85)
[7] = cell-permeability relative to negative control rP38 (A type), aMTD-fused CRA recombinant protein, 10 μM FITC-labeled, 1 hour, 37° C., RAW 264.7 cells
[8] = cell-permeability relative to reference CPP MTD85 (C type), aMTD-fused CRA recombinant protein, 10 μM FITC-labeled, 1 hour, 37° C., RAW 264.7 cells
[9] = cell-permeability relative to reference CPP MTM12 (B type), aMTD-fused CRA recombinant protein, 10 μM FITC-labeled, 1 hour, 37° C., RAW 264.7 cells
[10] = 10 μM FITC-labeled, 1 hour, 37° C., RAW 264.7 cells

Molecule	Relative Ratio (Fold) A (RAW 264.7 cells [1]; [4])	Relative Ratio (Fold) B (RAW 264.7 cells [1]; [5])	Relative Ratio (Fold) C (RAW 264.7 cells [1]; [6])	other results
868 (VLVAAILPAAIP; Amino acid Sequence of aMTD868) [compound 868]	14.9 Fold	10.0 Fold	5.0 Fold	
525 (ALAIVVAPVAVP; Amino acid Sequence of aMTD525) [compound 525]	13.8 Fold	9.2 Fold	4.7 Fold	
361 (AVVIVAPAVIAP; Amino acid Sequence of aMTD361) [compound 361]	16.0 Fold	10.7 Fold	5.4 Fold	
703 (IVAVALVPALAP; Amino acid Sequence of aMTD703) [compound 703]	29.2 Fold	19.5 Fold	9.9 Fold	
847 (LVAIVVLPAVAP; Amino acid Sequence of aMTD847) [compound 847]	50.2 Fold	33.4 Fold	16.9 Fold	
422 (VVAILAPLLAAP; Amino acid Sequence of aMTD422) [compound 422]	19.6 Fold	13.1 Fold	6.6 Fold	
843 (AVLVLVAPAAAP; Amino acid Sequence of aMTD843) [compound 843]	26.4 Fold	17.7 Fold	8.9 Fold	
143 (AVLAVPAVLVAP; Amino acid Sequence of aMTD143) [compound 143]				Relative Ratio (Fold) A (RAW 264.7 cells [1]; [7]): 3.3 Fold; Relative Ratio (Fold) C (RAW 264.7 cells [1]; [8]): 1.1 Fold; Relative Ratio (Fold) B (RAW 264.7 cells [1]; [9]): 2.2 Fold
901 (ALVAVLPAVAVP; Amino acid Sequence of aMTD901) [compound 901]	7.7 Fold	5.1 Fold	2.6 Fold	
896 (AILIVVAPIAAP; Amino acid Sequence of aMTD896) [compound 896]	57.5 Fold	38.5 Fold	19.4 Fold	
383 (VIVALAPALLAP; Amino acid Sequence of aMTD383) [compound 383]	11.6 Fold	7.7 Fold	3.9 Fold	
964 (ALLVIAPAIAVP; Amino acid Sequence of aMTD864) [compound 964]	8.2 Fold	4.8 Fold	2.8 Fold	
61 (VAALPVLLAALP; Amino acid Sequence of aMTD61) [compound 61]	31.2 Fold	20.8 Fold	10.5 Fold	
18 (NYCCTPTTNGQS; Amino acid Sequence of rPeptide ID 18) [compound 18]				Relative Ratio to aMTD AVE (RAW 264.7 cells [1]; [10]): 0.10
803 (AIALAVPVLALP; Amino acid Sequence of aMTD803) [compound 803]	74.7 Fold	50.0 Fold	25.3 Fold	
685 (ALLVAVLPAALP; Amino acid Sequence of aMTD685) [compound 685]	10.2 Fold	5.9 Fold	3.4 Fold	
665 (LAIVLAAPVAVP; Amino acid Sequence of aMTD665) [compound 665]	14.7 Fold	9.9 Fold	5.0 Fold	
666 (AAIAIIAPAIVP; Amino acid Sequence of aMTD666) [compound 666]	14.7 Fold	9.9 Fold	5.0 Fold	
403 (AAALVIPAAILP; Amino acid Sequence of aMTD403) [compound 403]	25.2 Fold	16.8 Fold	8.5 Fold	
767 (IVVAAVVPALAP; Amino acid Sequence of aMTD767) [compound 767]	8.5 Fold	5.0 Fold	2.9 Fold	
485 (AILAAIVPLAVP; Amino acid Sequence of aMTD485) [compound 485]				Relative Ratio (Fold) A (RAW 264.7 cells [1]; [7]): 6.8 Fold; Relative Ratio (Fold) C (RAW 264.7 cells [1]; [8]): 2.3 Fold; Relative Ratio (Fold) B (RAW 264.7 cells [1]; [9]): 4.5 Fold
97 (ALLAAPPALLAL; Amino acid Sequence of rPeptide ID 97) [compound 97]				Relative Ratio to aMTD AVE (RAW 264.7 cells [1]; [10]): 0.41
B1				solubility/yield [2]: high solubility/yield; cell-permeability (protein uptake) (RAW 264.7 cells [3]): high cell permeability; induction of apoptosis (Annexin V) (AGS cells): showed high anticancer efficacy; also recorded: efficacy equivalent to or higher than HM165S3B

Source: US10385103B2, “Cell-permeable (ICP)-SOCS3 recombinant protein and uses thereof” (CELLIVERY THERAPEUTICS, INC., priority 2014, dated 2019)
